Measured values from patent publication US9790469B2, “Established human brown adipocyte line and method for differentiation from an hMADS cell line” (CENTRE NATIONAL DE LA RECHERCHE SCIENTIFIQUE (CNRS), priority 2008, dated 2017).

What was measured:
[1] = system: hMADS-2 cells differentiated into white adipocytes; assay: Induction of a brown phenotype in hMADS-2 cells previously differentiated into white adipocytes; format: cell-based, human; conditions: for UCP1 gene expression: replacement of rosiglitazone, 10 μM, results not shown; for expression of the UCP1 protein: exposure between days 14 and 16 with specific PPAR ligands
Method: Initially hMADS-2 cells were differentiated into white adipocytes with 100 nM rosiglitazone present between days 3 and 9. Once eliminated, the ligand is added or not added on day 14 and during the following days at the indicated […] concentrations.
The results are expressed as stimulation factor by taking as 1 the values obtained on day 16 after exposure to 100 nM rosiglitazone between days 3 and 9; the values represent the mean±SD of 2 independent experiments carried out with various series of cells.
(§1) Expression of the genes of interest was normalized compared with the one of the TBP gene and was quantified using the ΔCt comparative method. The sequences of oligonucleotide primers, obtained using the Primer Express Software (Perkin Elmer Life Sciences), are described in Table 1 below.
The primary antibodies obtained from the rabbit, anti-human UCP1 and anti-TBP, are products from Santa Cruz Biotechnology (Santa Cruz, Calif., USA) and the secondary antibodies (conjugated with horseradish peroxidase) are products from Promega (Charbonnières, France). The “Enhanced Chemiluminescence” system (Millipore, Saint-Quentin-Yvelines, France) was used for detection.

[2] = system: hMADS-2 cells; assay: Expression of brown adipocyte markers and related genes in hMADS-2 cells (quantitative RT-PCR, immunoblot); format: cell-based, human; conditions: brown phenotype; ratio 1 for the white phenotype (days 3 to 9)
Method: Differentiation of hMADS-2 cells was carried out as described in FIG. 1. On day 16, levels of UCP1 (A), UCP2 (C), CIDEA (D) and CPT1B (E) mRNA were determined by quantitative RT-PCR. The results represent the mean±SD of 3 independent experiments carried out with various series of cells; they are expressed by taking as 100% the value obtained in the presence of 500 nM rosiglitazone. Levels of the UCP1 protein (B) were determined by immunoblotting on 2 different series of cells using TBP as endogenous internal standard.
Adipocytic differentiation of hMADS-2 cells was carried out in the presence of either rosiglitazone at 100 nM (A) or at the indicated concentrations (B). Levels of PRDM16, PGC-1α, PGC-1β and PPARα mRNA were determined by quantitative RT-PCR on day 16 (A) and day 17 (B). […]
Adipocytic differentiation of hMADS-2 cells was carried out in the presence of 100 nM rosiglitazone. On day 16, Bcl-2 and Bax mRNA levels were determined by quantitative RT-PCR. […]
RNA purification and analysis: RNA extraction, the use of reverse transcriptase and determination of mRNA levels by real-time quantitative RT-PCR have been described (Zaragosi, L. E et al., Stem Cells, 2006. 24(11): p. 2412-9; Elabd, C, et al., Biochem Biophys Res Commun, 2007. 361(2): p. 342-8; Bezy, O., et al., J Biol Chem, 2005. 280(12): p. 11432-8). […]

[3] = system: hMADS-2 cells; assay: Oxygen consumption and respiratory uncoupling of hMADS-2 cells (respirometer); format: cell-based, human
Method: On day 20, oxygen consumption (A), decoupling of oxidative phosphorylation (B) and stimulation of oxygen consumption by isoprenaline (C) were measured according to the protocol described in “Materials and Methods”. […] Determination of oxygen consumption: Oxygen consumption was measured using two-chamber injection respirometer equipped with a Peltier thermostat, Clark electrodes and integrated magnetic stirrers (Oroboros, Innsbruck, Austria). Measurements were made at 37° C. with constant stirring in a volume of 2 ml of DMEM/F12 medium (1:1, v/v) containing 10% fetal calf serum. Before each measurement, the medium present in the chambers was equilibrated with air for 30 min, and then the freshly-trypsinized cells were transferred to this medium. […] The respiratory chain was blocked with 1 μg/ml antimycin A. Oxygen consumption was calculated using the DataGraph software (Oroboros Software). Basal respiratory activity corresponds to oxygen consumption sensitive to antimycin A. Respiratory activity was stimulated in the presence of 1 μM isoprenaline added extemporaneously in the injection chamber, with measurements made as described above.

[4] = system: hMADS-2 cells; assay: Stimulation of UCP1 expression by β-adrenergic agonists in hMADS-2 cells differentiated into brown adipocytes; format: cell-based, human; conditions: stimulation for 6 h at 10-100 nM; cells with 100 nM rosiglitazone days 3 to 16
Method: A) adipocytic differentiation of hMADS-2 cells was carried out in the presence of 100 nM rosiglitazone on the days indicated and mRNA levels were determined on day 17 by quantitative RT-PCR. (B, C) differentiation was obtained in the presence of 100 nM rosiglitazone between days 3 and 16, in the absence or the presence during the 6 last hours of β-adrenergic agonists at the indicated concentrations. The results represent the mean±SD of 3 (A) and 2 (B) independent experiments carried out with various series of cells; they are expressed by taking as 100% the values obtained either during treatment between days 3 and 9 (A) or in the absence of β-adrenergic agonists (B, C).
RNA purification and analysis: RNA extraction, the use of reverse transcriptase and determination of mRNA levels by real-time quantitative RT-PCR have been described (Zaragosi, L. E et al., Stem Cells, 2006. 24(11): p. 2412-9; Elabd, C, et al., Biochem Biophys Res Commun, 2007. 361(2): p. 342-8; Bezy, O., et al., J Biol Chem, 2005. 280(12): p. 11432-8). Expression of the genes of interest was normalized compared with the one of the TBP gene and was quantified using the ΔCt comparative method. […]
Immunoblot analysis: Total cellular lysates are analyzed by immunoblot as previously described (Bezy, O., et al., J Biol Chem, 2005. 280(12): p. 11432-8). […]

[5] = system: hMADS-2 cells; assay: Adipocytic differentiation of hMADS-2 cells (Oil Red O lipid staining, GPDH activity, PPARγ mRNA); format: cell-based, human
Text: as §1

[6] = system: human brown adipocytes immortalized by transgenesis and expressing β3-adrenergic receptors; conditions: Zilberfarb 1997; Jockers 1998; cited from earlier work
[7] = 100 nM, days 3 to 20 (brown) versus days 3 to 9 (white)

CCCCC/C=C\C/C=C\C/C=C\C/C=C\CCCC(=O)O [arachidonic acid]
UCP1 gene expression [1]: no effect

CN(CCOc1ccc(CC2SC(=O)NC2=O)cc1)c1ccccn1 (stereo not shown) [rosiglitazone]
ratio of Bcl-2 to Bax [2]: 3.7 | increase factor of total respiratory activity [3, 7]: 3 | increase factor of uncoupled respiratory activity [3, 7]: 2.5

Cc1cccc(Nc2cc(Cl)nc(SCC(=O)O)n2)c1C [Wy14643]
expression of the UCP1 protein [1]: not inducing the expression of the UCP1 protein

CC/C=C\C/C=C\C/C=C\C/C=C\C/C=C\CCCC(=O)O [eicosapentaenoic acid]
UCP1 gene expression [1]: no effect

C[C@H](Cc1ccc2c(c1)OC(C(=O)[O-])(C(=O)[O-])O2)NC[C@H](O)c1cccc(Cl)c1.[Na+].[Na+] [CL316243]
expression of UCP1 mRNA and UCP1 protein [4]: significantly increased

CCCc1c(OCCCOc2ccc(OCC(=O)O)cc2)ccc(C(C)=O)c1O [L165041]
expression of the UCP1 protein [1]: not inducing the expression of the UCP1 protein

O=C(Nc1ccccc1)c1cc([N+](=O)[O-])ccc1Cl [GW 9662]
differentiation of hMADS cells into adipocytes ([5]; PPARγ antagonist added to the differentiation medium): prevents | expression of the UCP-1 gene ([1]; PPARγ antagonist added, cells differentiated beforehand into white adipocytes): does not allow expression of the UCP-1 gene

CC(C)(C)NCC(O)COc1cccc2[nH]c(=O)[nH]c12 (stereo not shown) [CGP12177A]
lipolytic activity [6]: only weak lipolytic activity

CC/C=C\C/C=C\C/C=C\C/C=C\C/C=C\C/C=C\CCC(=O)O [docosahexaenoic acid]
UCP1 gene expression [1]: no effect

CC(C)NCC(O)c1ccc(O)c(O)c1 (stereo not shown) [isoproterenol]
expression of UCP1 mRNA and UCP1 protein [4]: significantly increased | stimulation of oxygen consumption ([3]; 1 μM, cells with brown phenotype): important stimulation

B1: BMP7: Bone Morphogentic Protein 7 (BMP7) (protein, UniProt P18075 293-431, looked up)
Bone morphogenetic protein 7: STGSKQRSQNRSKTPKNQEALRMANVAENSSSDQRQACKKHELYVSFRDLGWQDWIIAPEGYAAYYCEGECAFPLNSYMNATNHAIVQTLVHFINPETVPKPCCAPTQLNAISVLYFDDSSNVILKKYRNMVVRACGCH
differentiation of hMADS cells into adipocytes ([5]; BMP7 alone, in the absence of rosiglitazone): does not enable their differentiation into adipocytes | UCP-1 protein expression ([1]; cells differentiated beforehand into white adipocytes): weak increase
